Values quoted from earlier work as cited in patent US11833118B2 (priority 2016, dated 2023).

Columns and labels:
[1] = not given; remark: listed apart in the source

Row | SMILES | crossing of the blood-brain barrier relative to Δ9THC (in vivo) | psychoactivity relative to Δ9THC (man) | Vapor Pressure at 25° C. [1] | Vapor Pressure at 53.8° C. [1]
1 | CCCCCc1cc(O)c2c(c1)OC(C)(C)[C@@H]1CCC(CO)=C[C@@H]21 [11-hydroxy-Δ9THC] | more rapidly crosses the blood-brain barrier | more psychoactive than Δ9THC | – | –
2 | C=C(C)[C@H]1CC=C(C)CC1 [d-Limonene] | – | – | 2.0 mm Hg | 10 mm Hg
3 | O [Water] | – | – | 23.8 mm Hg | 111.4 mm Hg
